The values that follow come from paper PMC11314561, “Design and Synthesis of Novel Aminoindazole-pyrrolo[2,3-b]pyridine Inhibitors of IKKα That Selectively Perturb Cellular Non-Canonical NF-κB Signalling” (Molecules, 2024).

Common to all, as to experiment: kinase panel
What all share (assay type): biochemical

Experiment [1] concerns the target T1, Aurora-C(h) (Homo sapiens, UniProt Q9UQB9).
T1 sequence (Q9UQB9 1-309): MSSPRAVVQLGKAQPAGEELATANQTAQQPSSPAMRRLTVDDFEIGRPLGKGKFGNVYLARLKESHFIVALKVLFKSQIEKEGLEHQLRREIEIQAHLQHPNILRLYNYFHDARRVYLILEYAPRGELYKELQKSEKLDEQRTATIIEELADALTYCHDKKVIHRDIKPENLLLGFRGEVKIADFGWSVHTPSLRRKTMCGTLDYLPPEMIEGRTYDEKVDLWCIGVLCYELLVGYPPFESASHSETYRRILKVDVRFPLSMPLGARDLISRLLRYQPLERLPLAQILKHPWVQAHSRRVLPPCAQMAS
From the text:
(§1) We profiled three compounds from the series across the kinome (Table S1).
(§2) Ta b l e S1. The % inhibition of compounds 4, 5r [SU1261], and 6g [SU1349] against a
(§3) panel of kinase enzymes. We proϐiled three compounds from the series across 231
(§4) kinases. For SU1349, given its structural similarity with SU1261, we selected 98 from the
(§5) Tested kinase % inhibiƟon

For experiment [2], the target named is CDK6/cyclinD3(h) (Homo sapiens, UniProt Q00534).
Chain of CDK6/cyclinD3(h) (Q00534 whole entry): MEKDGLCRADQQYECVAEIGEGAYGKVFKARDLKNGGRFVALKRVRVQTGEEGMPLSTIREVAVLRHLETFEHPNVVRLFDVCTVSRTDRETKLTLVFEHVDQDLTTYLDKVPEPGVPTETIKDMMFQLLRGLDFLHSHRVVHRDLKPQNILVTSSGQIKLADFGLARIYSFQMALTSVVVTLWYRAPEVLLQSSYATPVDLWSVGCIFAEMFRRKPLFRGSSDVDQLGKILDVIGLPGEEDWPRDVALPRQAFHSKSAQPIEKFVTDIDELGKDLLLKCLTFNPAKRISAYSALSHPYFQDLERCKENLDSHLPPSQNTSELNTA
Chain of CDK6/cyclinD3(h) (P30281 whole entry partner): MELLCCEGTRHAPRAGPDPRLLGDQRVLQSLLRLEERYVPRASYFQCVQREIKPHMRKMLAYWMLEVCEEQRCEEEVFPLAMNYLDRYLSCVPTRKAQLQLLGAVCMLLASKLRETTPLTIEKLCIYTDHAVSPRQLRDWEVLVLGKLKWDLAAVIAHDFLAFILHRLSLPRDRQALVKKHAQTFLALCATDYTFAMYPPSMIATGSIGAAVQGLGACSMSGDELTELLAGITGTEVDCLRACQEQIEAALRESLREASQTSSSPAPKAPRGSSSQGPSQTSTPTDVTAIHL
Text: as §1, §2, §3, §4, §5

The target of experiment [3] is T2, JAK3(h) (Homo sapiens, UniProt P52333).
T2 sequence (P52333 1-1124): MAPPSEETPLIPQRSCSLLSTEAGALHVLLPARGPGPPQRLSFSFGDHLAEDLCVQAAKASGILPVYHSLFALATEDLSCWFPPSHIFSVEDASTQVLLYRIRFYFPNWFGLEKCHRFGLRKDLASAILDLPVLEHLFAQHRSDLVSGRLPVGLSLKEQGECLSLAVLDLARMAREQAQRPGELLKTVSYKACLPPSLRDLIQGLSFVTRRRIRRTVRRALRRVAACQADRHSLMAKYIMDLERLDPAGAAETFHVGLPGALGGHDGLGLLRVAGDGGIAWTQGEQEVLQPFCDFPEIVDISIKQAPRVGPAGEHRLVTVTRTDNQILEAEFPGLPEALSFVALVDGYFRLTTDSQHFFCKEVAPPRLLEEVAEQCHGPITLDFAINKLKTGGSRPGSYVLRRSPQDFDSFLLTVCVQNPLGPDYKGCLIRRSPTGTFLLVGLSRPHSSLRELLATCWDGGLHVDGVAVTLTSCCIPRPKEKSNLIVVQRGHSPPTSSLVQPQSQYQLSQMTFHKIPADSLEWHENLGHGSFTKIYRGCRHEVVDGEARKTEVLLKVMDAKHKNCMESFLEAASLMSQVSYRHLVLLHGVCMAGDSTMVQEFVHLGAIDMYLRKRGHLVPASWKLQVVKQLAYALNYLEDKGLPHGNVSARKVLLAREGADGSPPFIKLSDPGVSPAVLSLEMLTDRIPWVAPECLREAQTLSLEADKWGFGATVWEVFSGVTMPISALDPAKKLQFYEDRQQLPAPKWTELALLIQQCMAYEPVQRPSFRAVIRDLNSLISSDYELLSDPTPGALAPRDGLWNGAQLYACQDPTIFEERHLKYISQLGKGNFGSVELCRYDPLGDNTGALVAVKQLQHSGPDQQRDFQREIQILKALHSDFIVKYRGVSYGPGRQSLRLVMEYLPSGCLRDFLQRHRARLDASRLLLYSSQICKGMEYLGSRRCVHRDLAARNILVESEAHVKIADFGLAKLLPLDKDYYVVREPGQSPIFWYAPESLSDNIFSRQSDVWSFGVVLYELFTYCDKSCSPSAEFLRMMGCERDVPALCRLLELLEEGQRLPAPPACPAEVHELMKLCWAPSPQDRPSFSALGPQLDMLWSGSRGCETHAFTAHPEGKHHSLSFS
Text: as §1, §2, §3, §4, §5

The target of experiment [4] is LIMK1(h) (Homo sapiens, UniProt P53667).
Chain of LIMK1(h) (P53667 whole entry): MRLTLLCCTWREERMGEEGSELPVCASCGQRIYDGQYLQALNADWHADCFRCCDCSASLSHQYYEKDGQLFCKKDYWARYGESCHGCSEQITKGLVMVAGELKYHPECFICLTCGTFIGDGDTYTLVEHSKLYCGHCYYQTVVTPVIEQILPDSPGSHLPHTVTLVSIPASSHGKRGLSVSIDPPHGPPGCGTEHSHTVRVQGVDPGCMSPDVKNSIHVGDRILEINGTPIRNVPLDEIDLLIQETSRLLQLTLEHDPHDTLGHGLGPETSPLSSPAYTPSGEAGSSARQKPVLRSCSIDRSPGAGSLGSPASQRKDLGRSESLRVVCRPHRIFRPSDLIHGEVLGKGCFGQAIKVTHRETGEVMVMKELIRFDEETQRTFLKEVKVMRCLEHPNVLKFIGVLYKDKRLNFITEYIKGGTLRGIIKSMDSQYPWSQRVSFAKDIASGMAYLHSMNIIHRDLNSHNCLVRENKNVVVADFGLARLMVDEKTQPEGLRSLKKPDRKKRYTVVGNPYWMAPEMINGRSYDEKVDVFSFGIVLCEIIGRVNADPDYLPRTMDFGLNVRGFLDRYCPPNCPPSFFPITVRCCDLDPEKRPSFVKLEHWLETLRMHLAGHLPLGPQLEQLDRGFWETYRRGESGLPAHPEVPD
Text: as §1, §2, §3, §4, §5

Experiment [5] concerns the target Lck(h) (Homo sapiens, UniProt P06239).
Text: as §1, §2, §3, §4, §5

For experiment [6], the target named is PKCα(h) (Homo sapiens, UniProt P17252).
Text: as §1, §2, §3, §4, §5

The target of experiment [7] is T3, PRAK(h) (Homo sapiens, UniProt Q8IW41).
T3 sequence (Q8IW41 1-473): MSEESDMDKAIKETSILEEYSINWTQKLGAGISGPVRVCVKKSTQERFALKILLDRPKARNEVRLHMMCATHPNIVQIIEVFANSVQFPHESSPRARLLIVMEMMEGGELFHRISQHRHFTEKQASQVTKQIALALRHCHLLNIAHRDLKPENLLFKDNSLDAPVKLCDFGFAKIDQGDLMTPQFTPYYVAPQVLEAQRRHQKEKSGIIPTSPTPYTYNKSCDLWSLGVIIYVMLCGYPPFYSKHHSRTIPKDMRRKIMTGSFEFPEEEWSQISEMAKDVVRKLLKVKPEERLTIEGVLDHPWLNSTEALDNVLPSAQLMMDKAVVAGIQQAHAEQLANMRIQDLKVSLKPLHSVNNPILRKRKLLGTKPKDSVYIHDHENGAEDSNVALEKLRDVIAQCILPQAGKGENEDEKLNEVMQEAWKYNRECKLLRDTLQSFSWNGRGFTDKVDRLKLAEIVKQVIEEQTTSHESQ
Text: as §1, §2, §3, §4, §5

For experiment [8], the target named is T4, SAPK4(h) (Homo sapiens, UniProt O15264).
T4 sequence (O15264 1-365): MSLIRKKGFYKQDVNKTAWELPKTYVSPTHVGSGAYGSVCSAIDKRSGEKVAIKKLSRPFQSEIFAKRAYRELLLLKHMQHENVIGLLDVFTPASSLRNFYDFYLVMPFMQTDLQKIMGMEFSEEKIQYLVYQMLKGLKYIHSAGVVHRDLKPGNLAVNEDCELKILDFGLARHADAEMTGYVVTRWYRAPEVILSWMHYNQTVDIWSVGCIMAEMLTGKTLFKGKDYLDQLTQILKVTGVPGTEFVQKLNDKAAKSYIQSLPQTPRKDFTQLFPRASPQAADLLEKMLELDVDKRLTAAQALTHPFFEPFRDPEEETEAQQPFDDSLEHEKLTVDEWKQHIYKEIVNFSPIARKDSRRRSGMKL
Text: as §1, §2, §3, §4, §5

Chain of Lck(h) (P06239 whole entry): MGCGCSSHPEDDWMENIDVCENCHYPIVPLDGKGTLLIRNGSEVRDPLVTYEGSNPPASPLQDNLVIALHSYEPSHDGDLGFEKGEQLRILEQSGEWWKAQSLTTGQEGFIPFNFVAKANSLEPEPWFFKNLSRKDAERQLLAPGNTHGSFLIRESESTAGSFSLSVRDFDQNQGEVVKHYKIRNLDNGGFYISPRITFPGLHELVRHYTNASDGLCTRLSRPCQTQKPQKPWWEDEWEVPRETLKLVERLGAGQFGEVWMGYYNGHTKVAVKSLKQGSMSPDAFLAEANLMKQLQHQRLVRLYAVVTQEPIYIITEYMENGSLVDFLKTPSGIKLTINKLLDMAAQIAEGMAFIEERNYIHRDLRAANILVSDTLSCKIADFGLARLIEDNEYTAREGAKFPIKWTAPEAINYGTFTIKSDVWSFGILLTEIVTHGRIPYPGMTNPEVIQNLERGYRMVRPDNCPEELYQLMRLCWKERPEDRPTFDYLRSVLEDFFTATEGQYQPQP

With `Nc1n[nH]c2ccc(-c3ccnc4[nH]c(-c5ccnc(OCc6ccccc6)c5)cc34)cc12` [Compound 6g [SU1349]], the inhibition (commonly the relative decrease from the control value, in per cent) at 1 µM was 19% in experiment [1]; -13% in experiment [2]; 18% in experiment [3]; 15% in experiment [4]; -19% in experiment [5]; -1% in experiment [6]. The inhibition at 1 µM is 44% in experiment [7] and 10% in experiment [8].
As for `Nc1n[nH]c2ccc(-c3ccnc4[nH]c(-c5cccc(OCc6ccccc6)c5)cc34)cc12` [Compound 5r [SU1261]], the inhibition at 1 µM in experiment [1] is 32%; in experiment [2] it was 17%; in experiment [3], 30%; in experiment [4] it was 21%; in experiment [5], 34%; in experiment [6], 23%. Further, the inhibition at 1 µM in experiment [7] stood at 91%; in experiment [8], 18%.
Consider `Nc1n[nH]c2ccc(-c3ccnc4[nH]c(-c5ccccc5)cc34)cc12` [Compound 4], for which the inhibition at 1 µM in experiment [1] amounted to 90%; in experiment [2], 82%; in experiment [3] it was 76%; in experiment [4], 58%; in experiment [5], 48%; in experiment [6], 5%. Also, the inhibition at 1 µM in experiment [7] was found to be 97%; in experiment [8], 87%.
